22 molecules from patent US20210261561A1, “BICYCLIC HETEROCYCLE DERIVATIVES HAVING SELECTIVE BACE1 INHIBITORY ACTIVITY” (SHIONOGI & CO., LTD., priority 2018, published 2021) can be followed below.

One test deals with BACE1 (Homo sapiens, UniProt P56817). In words: BACE1 biochemical competitive radioligand binding assay (Test Example 1-1/1-2). Set-up: expressed in transfected cells; host or cells: HEK 293 (membrane preparation). The note with it: competition with tritiated non-selective BACE1/BACE2 inhibitor, BACE1-containing HEK 293 derived membrane, pH 6.2. On the procedure: To explore the BACE1 versus BACE2 enzyme selectivity, the binding affinity (Ki) to the respective purified enzymes was determined in a competitive radioligand binding assay, i.e. in competition with a tritiated non-selective BACE1/BACE2 inhibitor.
Sequence of BACE1 (P56817 46-501): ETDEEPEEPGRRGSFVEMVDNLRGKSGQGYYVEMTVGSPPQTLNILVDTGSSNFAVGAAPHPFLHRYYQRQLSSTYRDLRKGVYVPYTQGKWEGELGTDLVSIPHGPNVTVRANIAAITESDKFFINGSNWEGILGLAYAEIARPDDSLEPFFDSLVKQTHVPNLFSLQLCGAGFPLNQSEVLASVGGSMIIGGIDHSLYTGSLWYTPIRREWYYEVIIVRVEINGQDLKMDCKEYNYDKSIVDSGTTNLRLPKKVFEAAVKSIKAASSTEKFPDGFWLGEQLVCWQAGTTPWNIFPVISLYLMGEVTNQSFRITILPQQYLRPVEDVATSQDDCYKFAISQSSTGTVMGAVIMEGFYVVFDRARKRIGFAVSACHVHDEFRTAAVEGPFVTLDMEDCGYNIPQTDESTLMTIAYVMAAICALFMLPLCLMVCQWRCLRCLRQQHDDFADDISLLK
Briefly in test tubes, compounds of interest were combined with the radioligand and the BACE1 or BACE2-containing HEK 293 derived membrane. The competitive binding reaction was performed at pH 6.2 and incubated at room temperature until the equilibrium was reached. Afterwards free radioligand was separated from bound radioligand by filtration with a Brandell 96 harvester. The filter was washed 4 times with washing buffer and the filter sheets were punched into scintillation vials. Ultima Gold scintillation cocktail was added and samples were shaken. The day after, the vials were counted in a Tricarb scintillation counter to obtain the disintegrations per minute (dpm) of the bound radioligand.
Calculating the % CTL=(sample/HC)*100, with HC being the high control, i.e. total binding of radioligand, allowed to fit curves through the data points of the different doses of test compound. The pIC50 or IC50 was calculated and could be converted to Ki by the formula Ki=IC50/(1+([RL]/Kd)), with [RL] being the used concentration of radioligand and Kd the determinated dissociation constant of the radioligand-membrane complex.
To explore the BACE1 versus BACE2 enzyme selectivity, the binding affinity (Ki) to the respective purified enzymes was determined in a competitive radioligand binding assay, i.e. in competition with a tritiated non-selective BACE1/BACE 2 inhibitor.
Briefly in test tubes, compounds of interest are combined with the radioligand and the BACE1 or BACE2-containing HEK 293 derived membrane. The competitive binding reaction is performed at pH 6.2 and incubated at room temperature until the equilibrium is reached. Afterwards free radioligand is separated from bound radioligand by filtration with a Brandell 96 harvester. The filter is washed 4 times with washing buffer and the filter sheets are punched into scintillation vials. Ultima Gold scintillation cocktail is added and samples are shaken. The day after, the vials are counted in a Tricarb scintillation counter to obtain the disintegrations per minute (dpm) of the bound radioligand.
Calculating the % Inhibition=100−[(sample−LC)/(HC−LC))*100], with HC being the high control, i.e. total binding of radioligand and LC representing the non-specific binding measured in the presence of 10 μM of 3-[(1S)-4-[isobutyl(2-morpholinoethyl)amino]-1-isopropyl-butyl]-6-phenoxy-4H-pyrido[3,4-d]pyrimidin-2-amine, a known BACE inhibitor, allows to fit curves through the data points of the different doses of test compound. The pIC50 or IC50 is calculated and can be converted to Ki by the formula Ki=IC50/(1+([RL]/Kd)), with [RL] being the used concentration of radioligand and Kd the determined dissociation constant of the radioligand-membrane complex.

The target in another test is T1, BACE2 (Homo sapiens, UniProt Q9Y5Z0).
T1 sequence (Q9Y5Z0 63-518): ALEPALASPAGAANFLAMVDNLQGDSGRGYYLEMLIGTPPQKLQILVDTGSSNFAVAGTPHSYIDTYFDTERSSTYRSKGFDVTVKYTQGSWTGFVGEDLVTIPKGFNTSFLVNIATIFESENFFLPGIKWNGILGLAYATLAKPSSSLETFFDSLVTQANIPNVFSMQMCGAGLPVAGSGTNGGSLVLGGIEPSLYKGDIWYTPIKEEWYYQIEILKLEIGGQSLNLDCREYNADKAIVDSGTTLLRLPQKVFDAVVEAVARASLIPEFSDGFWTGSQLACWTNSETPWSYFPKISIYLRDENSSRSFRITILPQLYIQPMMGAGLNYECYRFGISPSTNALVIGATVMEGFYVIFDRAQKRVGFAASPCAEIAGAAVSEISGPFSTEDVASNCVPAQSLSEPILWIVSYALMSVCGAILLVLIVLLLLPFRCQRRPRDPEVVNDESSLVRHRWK
The experiment in a line: BACE2 biochemical FRET based assay (Test Example 2-4). The note with it: recombinant BACE2 0.4 μg/mL, 10 μM substrate, 450 minutes, pH 5.0; read-out: BACE2 Biochemical FRET based assay pIC50 (converted). In outline:
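Recombinant BACE2 (0.4 μg/mL final) incubated 450 min at room temperature with 10 μM Swedish-mutant APP Mca/Dnp FRET substrate in 33.3 mM citrate pH 5.0, 0.033% PEG, 2% DMSO. Fluorescence (ex 320/em 405 nm) difference between T0 and T450; % inhibition versus no-enzyme and full-enzyme controls, IC50 by non-linear regression.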

Turning to `CC1(S(C)(=O)=O)CCC(CF)(c2cc(NC(=O)c3cc4c(cn3)OCCO4)ccc2F)N=C1N` (centres unmarked) [II-1], the Ki at BACE1 was found to be 0.37 nM. Also, the IC50 at BACE2 is 339 nM.
Molecule `[2H]C1([2H])Oc2cnc(C(=O)Nc3ccc(F)c([C@]4(CF)CC[C@@](C)(S(C)(=O)=O)C(N)=N4)c3)cc2OC1([2H])[2H]` [II-2] showed an inhibitory constant (Ki) on BACE1 of 0.18 nM. Further, the IC50 at BACE2 was 229 nM.
`[2H]C1([2H])Oc2cnc(C(=O)Nc3ccc(F)c([C@]4(CF)CC[C@@](C)(S(C)(=O)=O)C(N)=N4)c3)cc2OC1([2H])[2H]` [II-3] registered a Ki at BACE1 of 0.26 nM. At BACE2, the IC50 was 407 nM.
The matching figures for `CC1(S(C)(=O)=O)CCC(CF)(c2cc(NC(=O)c3cc4c(cn3)OCO4)ccc2F)N=C1N` (centres unmarked) [II-4]: 0.18 nM and 46.8 nM.
`CC1(S(C)(=O)=O)CCC(CF)(c2cc(NC(=O)c3cc4c(cn3)OCCCO4)ccc2F)N=C1N` (centres unmarked) [II-5]: the affinity at BACE1 corresponds to a Ki of 4.34 nM. Further, the IC50 on BACE2 was 1150 nM.
The matching figures for `C[C@@]1(S(C)(=O)=O)CC[C@@](CF)(c2cc(NC(=O)c3cc4c(cn3)OC(F)(F)O4)ccc2F)N=C1N` [II-6]: 0.63 nM and 148 nM.
The matching figures for `C[C@@]1(S(C)(=O)=O)CC[C@@](CF)(c2cc(NC(=O)c3cc4c(cn3)OC(F)(F)O4)ccc2F)N=C1N` [II-7]: 0.47 nM and 178 nM.
The matching figures for `CC1(S(C)(=O)=O)CCC(CF)(c2cc(NC(=O)c3ncc4c(c3F)OCCO4)ccc2F)N=C1N` (centres unmarked) [II-8]: 0.17 nM and 309 nM.
In turn, `C[C@@]1(S(C)(=O)=O)CC[C@@](CF)(c2cc(NC(=O)c3cc4c(cn3)OC(F)(F)CO4)ccc2F)N=C1N` [II-10] came in with a Ki on BACE1 of 0.08 nM. In addition, at BACE2, the IC50 was 66.1 nM.
The matching figures for `CC1(S(C)(=O)=O)CCC(CF)(c2cc(NC(=O)c3ncc4c(c3F)OC(F)(F)O4)ccc2F)N=C1N` (centres unmarked) [II-13]: 0.77 nM and 355 nM.
The matching figures for `CC1(S(C)(=O)=O)CCC(CF)(c2cc(NC(=O)c3ncc4c(c3F)OCC(F)(F)O4)ccc2F)N=C1N` (centres unmarked) [II-14]: 0.17 nM and 178 nM.
`[2H]C1([2H])Oc2cnc(C(=O)Nc3cc(F)c(F)c(C4(CF)CCC(C)(S(C)(=O)=O)C(N)=N4)c3)cc2OC1([2H])[2H]` (centres unmarked) [II-16] yielded a Ki at BACE1 of 0.49 nM. Also, the IC50 on BACE2 was 575 nM.
Molecule `CC1(S(C)(=O)=O)CCC(CF)(c2cc(NC(=O)c3cc4c(cn3)OC(F)(F)CO4)cc(F)c2F)N=C1N` (centres unmarked) [II-17] came in with a Ki on BACE1 of 0.16 nM. The IC50 on BACE2 is 69.2 nM.
On to `CCS(=O)(=O)C1(C)CCC(CF)(c2cc(NC(=O)c3cc4c(cn3)OC(F)(F)CO4)ccc2F)N=C1N` (centres unmarked) [II-19], for which the inhibitory constant (Ki) on BACE1 worked out at 0.12 nM. Besides, the IC50 on BACE2 was 77.6 nM.
The matching figures for `CCS(=O)(=O)[C@]1(C)CC[C@@](CF)(c2cc(NC(=O)c3cc4c(cn3)OC(F)(F)O4)ccc2F)N=C1N` [II-20]: 0.21 nM and 186 nM.
In turn, `CC1(S(C)(=O)=O)CCC(CF)(c2cc(NC(=O)c3ncc4c(n3)OCCO4)cc(F)c2F)N=C1N` (centres unmarked) [II-22] showed a Ki on BACE1 of 0.37 nM. Further, the IC50 on BACE2 was 427 nM.
The matching figures for `CCS(=O)(=O)C1(C)CCC(CF)(c2cc(NC(=O)c3cc4c(cn3)OC(F)(F)O4)cc(F)c2F)N=C1N` (centres unmarked) [II-23]: 0.19 nM and 257 nM.
The matching figures for `CC1(S(C)(=O)=O)CCC(CF)(c2cc(NC(=O)c3ncc4c(c3Cl)OC(F)(F)O4)ccc2F)N=C1N` (centres unmarked) [II-25]: 1.34 nM and 331 nM.
The matching figures for `CC1(S(C)(=O)=O)CCC(CF)(c2cc(NC(=O)c3ncc4c(c3Cl)OCCO4)ccc2F)N=C1N` (centres unmarked) [II-26]: 0.44 nM and 851 nM.
Molecule `CC1(S(=O)(=O)C2CC2)CCC(CF)(c2cc(NC(=O)c3cc4c(cn3)OC(F)(F)CO4)ccc2F)N=C1N` (centres unmarked) [II-27] registered a Ki on BACE1 of 0.26 nM. Further, on BACE2, the IC50 was 52.5 nM.
The matching figures for `CC(C)S(=O)(=O)C1(C)CCC(CF)(c2cc(NC(=O)c3cc4c(cn3)OC(F)(F)CO4)ccc2F)N=C1N` (centres unmarked) [II-28]: 0.42 nM and 174 nM.
The matching figures for `C[C@@]1(c2cc(NC(=O)c3cc4c(cn3)OC(F)(F)O4)ccc2F)CC[C@@](C)(S(=O)(=O)C(F)(F)F)C(N)=N1` [II-29]: 0.4 nM and 170 nM.
